Experimental data reported in patent US11447638B2, “Acetalanthraquinone derivatives useful for cellular staining” (BIOSTATUS LIMITED, priority 2016, dated 2022).

How the values were obtained:
U-2 OS cells = assay: Confocal laser scanning microscopy (CLSM) localisation analysis; assay type: cell-based, human; settings: 30 min incubation, Ex 637 nm, Em >665 nm; for subcellular localisation by CLSM: FIG. 4 and 5
Outline: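 Live U-2 OS cells imaged by confocal microscopy after 30 min incubation with probe compound, excitation 637 nm, emission >665 nm, at several z depths with solution background removed. Sections merged into maximum projections; per-cell nucleus/cytoplasm fluorescence ratio used as index of DNA binding.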

A549 cells [1] = assay: Pulse exposure to probes, time-lapse, reimaged after 72 h; assay type: cell-based, human; settings: 20 uM for 15 mins, washout, T=72 h
Procedure: (§1) In this regard, A549 cells were seeded in a 24 well coverslip bottomed-plate, cultured overnight in McCoys media for 24 or 48 hours. The plates were placed onto an inverted automated microscope, with the capacity for acquiring an image sequence of different wells (therefore exposure to different agent labelling). An Axiovert 100 microscope (Carl Zeiss, Welwyn Garden City, UK) was fitted with an incubator for 37° C./5% CO2 maintenance (Solent Scientific, Portsmouth, UK), and an ORCA-ER CCD camera (Hamamatsu, Reading, UK). Illumination was controlled by a shutter in front of the transmission lamp, and an x, y positioning stage with separate z-focus (Prior Scientific, Cambridge, UK) controlled multi-field acquisition. Image capture was controlled using Metamorph software.
Cells were exposed to a constant dose (0-5 μM) or a pulsed dose of 0 or 20 μM agent for 15 minutes followed by washout with warmed full media.
All images were collected with a ×10 (PH1) apochromat objective lens providing a field size of 500 times 500 microns. In this case a phase contrast image was collected every 30 minutes for 72 hours. Single cell growth and expansion can be tracked over time. The cells were harvested and run through a flow cytometry (typically a FACS Calibur 635 nm excitation/661/16 emission).
A549 cells were loaded with 20 uM BST-101, BST-109 or BST-110 for 15 mins followed by washout. Cells were then time-lapsed and reimaged after T=72 h, as before, […]

[2] = Absorption and fluorescence spectra of compounds in PBS or HEPES; assay type: physicochemical; settings: for peak excitation wavelength: excitation wavelength used for fluorescence spectra of FIG. 1A/1B; for fluorescence emission, 540 nm (Ex in PBS): excited at 540 nm; for fluorescence emission, 540 nm (Ex in PBS) / fluorescence emission, λ1 nm (Ex in HEPES) / fluorescence emission, λ1 nm (Ex in PBS): 20 μM; for fluorescence emission, λ1 nm (Ex in HEPES) / fluorescence emission, λ1 nm (Ex in PBS): excited at absorption peak 1 (λ1)
Outline: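 Compounds (20 μM working solutions) in PBS or HEPES, read in quartz cuvette against buffer baseline, absorbance scanned 280–800 nm. Emission scanned 400–900 nm in 1 nm steps with excitation at each compound's first absorption peak or 540 nm, ten reads per point. DRAQ5 served as reference; spectra normalised to peak.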

A549 cells [3] = assay: Constant exposure to probes, time-lapse and flow cytometry after 72 h; assay type: cell-based, human; settings: within 24 hours
Procedure: Timelapse imaging, in accordance with Errington R J et al, Time-lapse microscopy approaches to track cell cycle and lineage progression at the single-cell level, Curr Protoc Cytom. 2013 April; Chapter 12: Unit 12.4, was carried out in relation to cells with exposure to probe compounds.
as §1
Cells were exposed to a constant dose (0-5 μM) or a pulsed dose of 0 or 20 μM agent for 15 minutes followed by washout with warmed full media. […]
A549 cell lines were monitored using time-lapse collection and lineage progression, in constant exposure to compounds of the invention. The effects on cells were also determined. […]

MCF7 = assay: MTT cellular viability (growth inhibition) assay, MCF7; assay type: cell-based; settings: Homo sapiens, 0.25-100 μM, 72 h, Table 3
Outline: (§2)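 Cells seeded at 1×10^4 cells/mL in R10, allowed to adhere overnight at 37 °C, 5% CO2. Compounds tested at 0.25–100 μM for 72 h; MTT read-out gave growth-inhibition IC50.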

A549 = assay: MTT cellular viability (growth inhibition) assay, A549; assay type: cell-based; settings: Homo sapiens, 0.25-100 μM, 72 h, Table 3
Outline: as §2

| peak excitation wavelength [2] [nm] | fluorescence emission, 540 nm (Ex in PBS) [2] [nm] | fluorescence emission, λ1 nm (Ex in HEPES) [2] [nm] | fluorescence emission, λ1 nm (Ex in PBS) [2] [nm] | IC50 (MCF7) [µM] | IC50 (A549) [µM] | SMILES | specific feature of localisation by CLSM (U-2 OS cells) | subcellular localisation by CLSM (U-2 OS cells) | cell division and signal retention / location after pulse exposure (A549 cells [1]) | localisation of probe during constant exposure (A549 cells [3]) |
| --- | --- | --- | --- | --- | --- | --- | --- | --- | --- | --- |
| 583 | 662 | 660 | 665.5 | 19.5 | 22.3 | COC(CC(=O)NCCNc1ccc(NCCN(C)C)c2c1C(=O)c1ccccc1C2=O)OC [BST-110, N-(2-(4-(2-(dimethylamino)ethylamino)-9,10-dioxo-9,10-dihydroanthracen-1-ylamino)ethyl)-3,3-dimethoxypropanamide] | whole cell staining | strong nuclear uptake and perinuclear staining, with possible ER accumulation | dividing, and signal now relocated in a non-nuclear compartment perinuclear | predominantly in a membrane compartment of the cytoplasm |
| 584 | 660 | 660 | 666 | 15.7 | 22.5 | COC(CNC(=O)CCNc1ccc(NCCN(C)C)c2c1C(=O)c1ccccc1C2=O)OC [BST-109, N-(2,2-Dimethoxyethyl)-3-(4-(2-(dimethylamino)ethylamino)-9,10-dioxo-9,10-dihydroanthracen-1-ylamino)propanamide] | whole cell staining | strong nuclear uptake and perinuclear staining, with possible ER accumulation | dividing, and signal retained but now relocated in a non-nuclear compartment perinuclear | predominantly in a membrane compartment of the cytoplasm |
